Test results taken from US11554124B2, “Hematopoiesis-enhancing agent” (priority 2018, dated 2023).

Test system: bone marrow erythroblasts
Assay: Flow cytometry of bone marrow cells / erythroblast subsets (Ter119/CD71 double staining) of treated mice
Format: in vivo, mouse
Conditions: CLEU 50 mg/body i.p.
Experimental: Wild-type mice with a genetic background of C57BL/6J were purchased from Charles River Laboratories, Inc. Mice at 8 to 14 weeks of age were used for analysis. For CLEU treatment (50 mg/body), a solution of cycloleucine (CLEU) was prepared by diluting cycloleucine (CLEU) (Sigma) in PBS (50 mg/ml), and 1 ml of the CLEU solution was administered intraperitoneally. For AKBA treatment (2 mg/body), 2 mg AKBA (Enzo Life Sciences)/20% DMSO/1 mL PBS solution was administered intraperitoneally. Vehicle without AKBA was used as a control. For measuring complete blood count of peripheral blood, peripheral blood was collected from facial veins and counted by use of an automated animal blood cell counter (microsemi LC-662). All of the experiments conducted in this study were approved by the Animal Experiment Committee of the Environmental Safety Committee of Tohoku University.
BM cells and spleen cells were harvested in a conventional manner. Cells were stained with combinations of antibodies specific to erythroblasts and mature cells, to thereby identify them. The cells were visualized with antibody and streptavidin-peridinin chlorophyll protein-cyanin 5.5. The antibodies used in this study were as follows: anti-CD3e (145-2C11), anti-CD4 (GK1.5 or RM4.5), anti-CD8a (53-6.7), anti-Gr-1 (RB6-8C5), anti-B220 (RA3-6B2), anti-Ter-119 (TER-119), anti-CD71 (R17217 or C2). Cells were stained with […] (Sigma), and dead cells were excluded from analysis. Flow cytometric analysis and cell sorting were performed according to the manufacturer's protocol using FACS AriaII (BD), and then the obtained data were analyzed using FlowJo software (TreeStar).
Additionally, MAT inhibitor PF9366 (PF) was administered to mice and the effect thereof was investigated. Vehicle (DMSO) (control (Ctrl)) or 10 mM PF9366 (prepared at a concentration of 40 μl/40 ml water) was provided in a drinking bottle (0 h). In addition, 80 μl of vehicle (DMSO) or 80 μl of 10 mM PF9366 dissolved in 1 ml PBS was also administered intraperitoneally at 0 h and 24 h. Analysis was carried out at Day 2 (48 h).
MAT inhibitor 3-acetyl-11-keto-β-boswellic acid (AKBA; 2 mg/body) was intraperitoneally administered to mice at 0 and 24 hours, and analyzed after 48 hours.

## NC1(C(=O)O)CCCC1 [CLEU, cycloleucine]
Day 2, Ter119/CD71 double staining
  subset from which the increase of erythroblasts was initiated: initiated from subset II
Day 2, Ter119/CD71 double staining, vs PBS
  maturation of erythroblasts: significantly up-regulated
Day 2, flow cytometry, vs PBS
  erythroid cells in BM: considerable increase
Femur and tibiae, Day 2, vs PBS
  BM cell counts: significantly increased
